Measurements reported in patent US10815230B2, “Casein kinase 1 delta inhibitor” (ELECTROPHORETICS LIMITED, priority 2015, dated 2020).
Several values for one entry are separate records, joined by “and”; a condition that tells them apart may be missing. Identical values can stand only once. Like-named read-outs stand apart in the source and are kept apart here.

Key:
[1] = biological target: HIPK2 (Homo sapiens, UniProt Q9H2X6); experiment: KINOMEscan binding assay; details: read-out: % Ctrl @ 10000 nM
[2] = biological target: CAMK4 (Homo sapiens, UniProt Q16566); experiment: KINOMEscan binding assay; details: read-out: % Ctrl @ 10000 nM
[3] = biological target: CAMK1D (Homo sapiens, UniProt Q8IU85); experiment: KINOMEscan binding assay; details: read-out: % Ctrl @ 10000 nM
[4] = biological target: RSK4 Kin.Dom.2-C-terminal (Homo sapiens, UniProt Q9UK32); experiment: KINOMEscan binding assay; details: read-out: % Ctrl @ 10000 nM
[5] = biological target: HIPK4 (Homo sapiens, UniProt Q8NE63); experiment: KINOMEscan binding assay; details: read-out: % Ctrl @ 10000 nM
[6] = biological target: PIK3CG (Homo sapiens, UniProt P48736); experiment: KINOMEscan binding assay; details: read-out: % Ctrl @ 10000 nM
[7] = biological target: ROCK1 (Homo sapiens, UniProt Q13464); experiment: KINOMEscan binding assay; details: read-out: % Ctrl @ 10000 nM
[8] = biological target: MELK (Homo sapiens, UniProt Q14680); experiment: KINOMEscan binding assay; details: read-out: % Ctrl @ 10000 nM
[9] = biological target: PRP4 (Homo sapiens, UniProt Q13523); experiment: KINOMEscan binding assay; details: read-out: % Ctrl @ 10000 nM
[10] = biological target: BRSK2 (Homo sapiens, UniProt Q8IWQ3); experiment: KINOMEscan binding assay; details: read-out: % Ctrl @ 10000 nM
[11] = biological target: T1, LKB1 (Homo sapiens, UniProt Q15831); experiment: KINOMEscan binding assay; details: read-out: % Ctrl @ 10000 nM
T1 construct: T7 phage fusion (most assays) or DNA label after HEK293 expression; purchased DiscoveRx (KINOMEscan, LeadHunter Discovery services); host or cells: T7 phage in E. coli (BL21-derived) or HEK293

[12] = biological target: FLT4 (Homo sapiens, UniProt P35916); experiment: KINOMEscan binding assay; details: read-out: % Ctrl @ 10000 nM
[13] = biological target: KIT (L576P) (Homo sapiens, UniProt P10721, L576P); experiment: KINOMEscan binding assay; details: read-out: % Ctrl @ 10000 nM
[14] = biological target: GRK1 (Homo sapiens, UniProt Q15835); experiment: KINOMEscan binding assay; details: read-out: % Ctrl @ 10000 nM
[15] = biological target: PKMYT1 (Homo sapiens, UniProt Q99640); experiment: KINOMEscan binding assay; details: read-out: % Ctrl @ 10000 nM
[16] = biological target: STK39 (Homo sapiens, UniProt Q9UEW8); experiment: KINOMEscan binding assay; details: read-out: % Ctrl @ 10000 nM
[17] = biological target: ABL1 (F317L) non-phosphorylated (Homo sapiens, UniProt P00519, F317L); experiment: KINOMEscan binding assay; details: read-out: % Ctrl @ 10000 nM
[18] = biological target: DDR2 (Homo sapiens, UniProt Q16832); experiment: KINOMEscan binding assay; details: read-out: % Ctrl @ 10000 nM
[19] = biological target: FLT3-autoinhibited (Homo sapiens, UniProt P36888); experiment: KINOMEscan binding assay; details: read-out: % Ctrl @ 10000 nM
[20] = biological target: PAK3 (Homo sapiens, UniProt O75914); experiment: KINOMEscan binding assay; details: read-out: % Ctrl @ 10000 nM
[21] = biological target: TLK2 (Homo sapiens, UniProt Q86UE8); experiment: KINOMEscan binding assay; details: read-out: % Ctrl @ 10000 nM
[22] = biological target: PIK3CA (M1043I) (Homo sapiens, UniProt P42336, M1043I); experiment: KINOMEscan binding assay; details: read-out: % Ctrl @ 10000 nM
[23] = biological target: NDR1 (Homo sapiens, UniProt Q15208); experiment: KINOMEscan binding assay; details: read-out: % Ctrl @ 10000 nM
[24] = biological target: T2, ULK2 (Homo sapiens, UniProt Q8IYT8); experiment: KINOMEscan binding assay; details: read-out: % Ctrl @ 10000 nM
T2 construct: purchased DiscoveRx (KINOMEscan, LeadHunter Discovery services)

[25] = biological target: T3, LRRK2 (G2019S) (Homo sapiens, UniProt Q5S007, G2019S); experiment: KINOMEscan binding assay; details: read-out: % Ctrl @ 10000 nM
T3 construct: T7 phage fusion (most assays) or DNA label after HEK293 expression; purchased DiscoveRx (KINOMEscan, LeadHunter Discovery services); host or cells: T7 phage in E. coli (BL21-derived) or HEK293

[26] = biological target: SGK (Homo sapiens, UniProt O00141); experiment: KINOMEscan binding assay; details: read-out: % Ctrl @ 10000 nM
[27] = biological target: EGFR (L747-S752del, P753S) (Homo sapiens, UniProt P00533, DEL747-752/P753S); experiment: KINOMEscan binding assay; details: read-out: % Ctrl @ 10000 nM
[28] = biological target: SRMS (Homo sapiens, UniProt Q9H3Y6); experiment: KINOMEscan binding assay; details: read-out: % Ctrl @ 10000 nM
[29] = Determination of compound in plasma and brain by LC-MS/MS; format: in vivo; details: TMHT mice of experiment 5.5, 30 mg/kg orally for 8 weeks; for concentration in cortex: cortex at sacrifice; for concentration in plasma: plasma at sacrifice; for concentration in rest of brain: rest of brain at sacrifice; for concentration at 8 weeks: TMHT, mouse, oral, 30 mg/kg
Experimental: Plasma and brain samples derived from the experiments in 5.5 were pooled from single time point and were analysed for the presence and concentration of Comparative Compound 324 and Compound A by LC-MS/MS after protein precipitation over the calibration range of 0.5-10,000 ng/mL. Chrysin (Sigma®), control mouse plasma and brain (obtained from a commercial supplier) were used as internal standards.
All instrument control, data collection, peak area integration and storage were performed using Thermo Finnigan TSQ Quantum Ultra Mass Spectrometer in conjunction with LCQuan software (v.2.5.6). The mass spectrometer response (peak area ratio of analyte to internal standard) of each calibration standard was calculated by Watson LIMS (v. 7.2) and plotted against the nominal concentration. A weighted least square quadratic regression analysis was used to calculate an equation of the calibration line using one of the standard fits in Watson LIMS. Concentration of Comparative Compound 324 and Compound A in the plasma and brain samples were back calculated from the calibration lines to 3 significant figures. All results reported are from samples that passed the following criteria:
[formula] • At least 7 calibration standards within ±20% RE of their target concentrations. • At least 66% of QC samples within ±20% RE of their respective target values. Within at least one acceptable at each level when n=3 and two when n=6.
The analytical method was as summarised below in Table 14:
In total 32 samples were analysed. Quality control (QC) samples at concentration of 10, 100 and 1000 ng/mL were freshly prepared on the day of the analysis.

[30] = biological target: PDGFRB (Homo sapiens, UniProt P09619); experiment: KINOMEscan binding assay; details: read-out: % Ctrl @ 10000 nM
[31] = biological target: DAPK3 (Homo sapiens, UniProt O43293); experiment: KINOMEscan binding assay; details: read-out: % Ctrl @ 10000 nM
[32] = hippocampus at sacrifice, LC-MS/MS, one value per mouse

FLT3-autoinhibited, sequence (P36888 564-993 limits assumed): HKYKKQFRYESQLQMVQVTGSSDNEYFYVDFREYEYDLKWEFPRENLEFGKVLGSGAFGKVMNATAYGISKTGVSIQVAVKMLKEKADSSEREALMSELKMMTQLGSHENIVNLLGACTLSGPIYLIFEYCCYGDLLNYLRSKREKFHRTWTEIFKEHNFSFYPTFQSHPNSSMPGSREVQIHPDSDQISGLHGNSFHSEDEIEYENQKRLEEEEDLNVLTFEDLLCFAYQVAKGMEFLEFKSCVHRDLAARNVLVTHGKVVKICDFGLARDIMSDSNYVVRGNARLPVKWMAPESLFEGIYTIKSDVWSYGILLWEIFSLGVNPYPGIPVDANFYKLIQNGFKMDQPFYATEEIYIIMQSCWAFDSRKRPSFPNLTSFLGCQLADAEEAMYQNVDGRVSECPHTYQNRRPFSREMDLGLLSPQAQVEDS
CAMK4, sequence (Q16566 whole entry): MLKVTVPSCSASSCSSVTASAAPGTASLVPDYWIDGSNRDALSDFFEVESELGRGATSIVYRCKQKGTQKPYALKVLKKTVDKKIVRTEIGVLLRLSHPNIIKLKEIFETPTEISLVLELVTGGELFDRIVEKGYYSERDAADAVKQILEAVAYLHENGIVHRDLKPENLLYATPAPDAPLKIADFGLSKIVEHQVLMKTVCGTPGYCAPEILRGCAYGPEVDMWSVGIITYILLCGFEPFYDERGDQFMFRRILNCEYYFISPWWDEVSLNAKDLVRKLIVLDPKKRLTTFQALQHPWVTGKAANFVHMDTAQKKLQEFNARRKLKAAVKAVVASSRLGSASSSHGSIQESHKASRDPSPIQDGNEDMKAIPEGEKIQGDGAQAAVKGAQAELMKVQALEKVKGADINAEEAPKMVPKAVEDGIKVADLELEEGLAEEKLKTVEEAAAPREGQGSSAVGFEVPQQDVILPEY
PIK3CG, sequence (P48736 whole entry): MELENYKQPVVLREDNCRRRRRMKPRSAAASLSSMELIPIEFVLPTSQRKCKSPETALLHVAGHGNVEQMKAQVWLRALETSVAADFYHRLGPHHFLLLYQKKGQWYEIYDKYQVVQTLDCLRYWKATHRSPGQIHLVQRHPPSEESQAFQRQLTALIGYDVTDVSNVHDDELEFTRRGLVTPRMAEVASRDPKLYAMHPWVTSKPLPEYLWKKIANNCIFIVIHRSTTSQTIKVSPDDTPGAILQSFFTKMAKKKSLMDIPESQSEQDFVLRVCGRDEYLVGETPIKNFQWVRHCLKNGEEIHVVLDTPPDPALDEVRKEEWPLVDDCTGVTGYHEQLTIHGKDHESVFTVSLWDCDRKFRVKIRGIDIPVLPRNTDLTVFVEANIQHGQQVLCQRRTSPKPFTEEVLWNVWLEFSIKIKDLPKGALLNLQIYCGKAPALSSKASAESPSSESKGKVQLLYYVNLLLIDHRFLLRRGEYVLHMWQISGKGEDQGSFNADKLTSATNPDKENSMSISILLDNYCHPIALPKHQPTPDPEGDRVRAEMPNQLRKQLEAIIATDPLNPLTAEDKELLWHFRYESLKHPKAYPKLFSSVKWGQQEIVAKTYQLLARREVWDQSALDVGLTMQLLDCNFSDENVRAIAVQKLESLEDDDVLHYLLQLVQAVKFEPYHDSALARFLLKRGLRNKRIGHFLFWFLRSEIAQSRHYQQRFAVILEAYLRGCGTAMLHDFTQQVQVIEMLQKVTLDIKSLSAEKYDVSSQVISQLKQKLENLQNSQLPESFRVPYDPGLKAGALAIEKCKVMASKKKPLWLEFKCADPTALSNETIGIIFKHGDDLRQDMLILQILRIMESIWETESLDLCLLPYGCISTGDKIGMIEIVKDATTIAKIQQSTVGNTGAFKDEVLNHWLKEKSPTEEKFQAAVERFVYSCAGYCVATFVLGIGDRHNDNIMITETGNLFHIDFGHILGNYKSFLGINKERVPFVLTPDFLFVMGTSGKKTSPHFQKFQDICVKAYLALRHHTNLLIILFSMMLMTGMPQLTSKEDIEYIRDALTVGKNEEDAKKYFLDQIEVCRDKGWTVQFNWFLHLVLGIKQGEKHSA
SRMS, sequence (Q9H3Y6 whole entry): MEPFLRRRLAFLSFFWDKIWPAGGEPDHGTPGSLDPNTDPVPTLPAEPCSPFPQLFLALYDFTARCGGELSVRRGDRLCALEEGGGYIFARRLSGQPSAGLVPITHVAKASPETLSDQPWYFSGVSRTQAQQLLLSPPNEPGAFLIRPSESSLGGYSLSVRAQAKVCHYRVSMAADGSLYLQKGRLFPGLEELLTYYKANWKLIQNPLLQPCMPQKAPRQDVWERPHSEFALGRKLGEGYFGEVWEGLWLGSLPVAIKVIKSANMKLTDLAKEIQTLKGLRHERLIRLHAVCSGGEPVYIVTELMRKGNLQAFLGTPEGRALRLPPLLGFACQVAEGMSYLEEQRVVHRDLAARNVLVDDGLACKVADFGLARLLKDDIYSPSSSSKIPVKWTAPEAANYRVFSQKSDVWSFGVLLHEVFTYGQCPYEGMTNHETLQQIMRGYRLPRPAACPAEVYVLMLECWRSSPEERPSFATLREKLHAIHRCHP
CAMK1D, sequence (Q8IU85 whole entry): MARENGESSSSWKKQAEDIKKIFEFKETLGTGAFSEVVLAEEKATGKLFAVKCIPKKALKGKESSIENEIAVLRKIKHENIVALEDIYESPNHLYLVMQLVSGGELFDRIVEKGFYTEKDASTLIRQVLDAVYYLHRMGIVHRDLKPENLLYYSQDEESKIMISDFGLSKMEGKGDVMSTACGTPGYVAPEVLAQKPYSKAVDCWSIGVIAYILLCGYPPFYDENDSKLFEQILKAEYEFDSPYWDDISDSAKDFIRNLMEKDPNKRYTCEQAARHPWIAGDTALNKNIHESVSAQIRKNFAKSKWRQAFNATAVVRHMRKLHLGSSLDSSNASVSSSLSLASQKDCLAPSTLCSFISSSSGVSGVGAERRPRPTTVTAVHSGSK
TLK2, sequence (Q86UE8 whole entry): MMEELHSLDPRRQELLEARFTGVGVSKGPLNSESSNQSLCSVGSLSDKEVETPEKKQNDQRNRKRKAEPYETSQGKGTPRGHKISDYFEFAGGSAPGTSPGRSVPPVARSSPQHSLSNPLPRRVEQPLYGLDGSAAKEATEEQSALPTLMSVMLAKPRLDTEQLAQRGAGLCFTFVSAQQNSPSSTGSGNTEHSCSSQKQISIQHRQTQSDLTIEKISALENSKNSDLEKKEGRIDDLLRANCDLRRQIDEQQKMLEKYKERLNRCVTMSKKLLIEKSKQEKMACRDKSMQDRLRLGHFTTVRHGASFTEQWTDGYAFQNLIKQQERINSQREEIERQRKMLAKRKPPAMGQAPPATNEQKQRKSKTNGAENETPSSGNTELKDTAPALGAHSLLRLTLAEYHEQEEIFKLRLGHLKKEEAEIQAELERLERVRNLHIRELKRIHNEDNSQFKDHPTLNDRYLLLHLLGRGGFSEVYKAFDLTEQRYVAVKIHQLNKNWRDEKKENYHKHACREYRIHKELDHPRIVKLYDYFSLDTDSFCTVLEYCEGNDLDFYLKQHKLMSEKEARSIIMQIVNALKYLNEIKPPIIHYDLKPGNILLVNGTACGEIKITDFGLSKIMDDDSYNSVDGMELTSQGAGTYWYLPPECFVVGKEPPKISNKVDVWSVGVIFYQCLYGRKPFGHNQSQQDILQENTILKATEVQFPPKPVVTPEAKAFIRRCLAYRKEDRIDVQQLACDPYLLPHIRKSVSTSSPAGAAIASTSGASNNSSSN
DAPK3, sequence (O43293 whole entry): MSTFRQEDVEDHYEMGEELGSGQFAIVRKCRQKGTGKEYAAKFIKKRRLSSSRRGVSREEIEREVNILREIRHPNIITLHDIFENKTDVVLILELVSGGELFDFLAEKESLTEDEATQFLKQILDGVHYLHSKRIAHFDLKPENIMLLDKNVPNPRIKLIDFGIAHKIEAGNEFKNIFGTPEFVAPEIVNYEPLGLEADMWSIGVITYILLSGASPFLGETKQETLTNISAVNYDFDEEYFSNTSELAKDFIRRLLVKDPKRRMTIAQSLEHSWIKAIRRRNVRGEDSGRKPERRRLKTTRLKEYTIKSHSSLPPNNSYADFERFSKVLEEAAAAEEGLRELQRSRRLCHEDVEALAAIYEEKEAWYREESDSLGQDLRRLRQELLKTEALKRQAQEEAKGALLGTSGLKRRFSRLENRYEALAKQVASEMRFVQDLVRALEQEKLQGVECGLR
PKMYT1, sequence (Q99640 whole entry): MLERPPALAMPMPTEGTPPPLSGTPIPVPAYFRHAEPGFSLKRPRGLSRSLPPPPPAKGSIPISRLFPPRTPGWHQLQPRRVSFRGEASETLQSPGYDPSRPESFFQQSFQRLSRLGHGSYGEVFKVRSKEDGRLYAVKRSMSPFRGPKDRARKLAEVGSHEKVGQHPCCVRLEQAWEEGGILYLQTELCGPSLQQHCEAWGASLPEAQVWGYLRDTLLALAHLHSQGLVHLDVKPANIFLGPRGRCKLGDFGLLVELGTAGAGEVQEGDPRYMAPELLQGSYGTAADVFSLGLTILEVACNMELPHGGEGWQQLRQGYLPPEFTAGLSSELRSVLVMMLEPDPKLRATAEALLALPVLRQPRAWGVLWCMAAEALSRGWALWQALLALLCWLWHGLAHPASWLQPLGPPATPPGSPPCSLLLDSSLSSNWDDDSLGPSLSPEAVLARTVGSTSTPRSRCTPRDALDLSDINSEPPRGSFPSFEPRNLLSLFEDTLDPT
RSK4 Kin.Dom.2-C-terminal, sequence (Q9UK32 426-683 limits assumed): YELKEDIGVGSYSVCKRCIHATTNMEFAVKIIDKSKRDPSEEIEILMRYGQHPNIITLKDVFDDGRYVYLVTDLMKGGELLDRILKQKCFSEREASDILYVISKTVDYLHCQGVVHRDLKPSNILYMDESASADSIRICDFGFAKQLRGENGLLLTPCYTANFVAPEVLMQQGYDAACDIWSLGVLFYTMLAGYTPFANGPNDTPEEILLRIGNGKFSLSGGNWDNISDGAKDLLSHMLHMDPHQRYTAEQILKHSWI

SMILES | remaining binding at 10 µM [1] [%] | remaining binding at 10 µM [2] [%] | remaining binding at 10 µM [3] [%] | remaining binding at 10 µM [4] [%] | remaining binding at 10 µM [5] [%] | remaining binding at 10 µM [6] [%] | remaining binding at 10 µM [7] [%] | remaining binding at 10 µM [8] [%] | remaining binding at 10 µM [9] [%] | remaining binding at 10 µM [10] [%] | remaining binding at 10 µM [11] [%] | remaining binding at 10 µM [12] [%] | remaining binding at 10 µM [13] [%] | remaining binding at 10 µM [14] [%] | remaining binding at 10 µM [15] [%] | remaining binding at 10 µM [16] [%] | remaining binding at 10 µM [17] [%] | remaining binding at 10 µM [18] [%] | remaining binding at 10 µM [19] [%] | remaining binding at 10 µM [20] [%] | also measured
Nc1ncc(-c2nc3ccccc3o2)c(-c2ccncc2)n1 [Comparative Compound 324, 5-(1,3-benzoxazol-2-yl)-4-(pyridine-4-yl)pyrimidin-2-amine] | 67 | 89 | 96 | 35 | 100 | 32 | 96 | 80 | 70 | 100 | 85 | 79 | 57 | 68 | 100 | 100 | 100 | 100 | 95 | 95 | remaining binding at 10 µM [21]: 100%; remaining binding at 10 µM [22]: 100%; remaining binding at 10 µM [23]: 73%; remaining binding at 10 µM [24]: 100%; remaining binding at 10 µM [25]: 76%; remaining binding at 10 µM [26]: 100%; remaining binding at 10 µM [27]: 57%; remaining binding at 10 µM [28]: 100%; concentration in cortex ([29]; LC-MS/MS, one value per mouse): 14.3 ng/mL and 108 ng/mL and 1.98 ng/mL and 10.5 ng/mL and 10.7 ng/mL and 0.536 ng/mL and 15.3 ng/mL and 6.41 ng/mL; concentration in hippocampus [29, 32]: 11.9 ng/mL and 87.0 ng/mL and BLQ (2×) and 12.6 ng/mL and 11.5 ng/mL and 15.1 ng/mL and 6.12 ng/mL; concentration in plasma ([29]; LC-MS/MS, one value per mouse): 295 ng/mL and 1450 ng/mL and 34.2 ng/mL and 230 ng/mL and 225 ng/mL and 10.5 ng/mL and 287 ng/mL and 138 ng/mL; concentration in rest of brain ([29]; LC-MS/MS, one value per mouse): 16.2 ng/mL and 122 ng/mL and 9.97 ng/mL and 9.75 ng/mL and 10.8 ng/mL and 1.12 ng/mL and 16.0 ng/mL and 7.09 ng/mL; remaining binding at 10 µM [30]: 90%; remaining binding at 10 µM [31]: 100%
CNc1c(C(N)=O)c2ccccn2c1C(=O)c1ccc(F)cc1 [Compound A, 2-methyl-amino-3-[(4-fluorophenyl)carbonyl]indolizine-1-carboxamide] | 74 | 96 | 97 | 6.6 | 83 | 79 | 100 | 71 | 90 | 94 | 85 | 62 | 29 | 53 | 52 | 81 | 88 | 65 | 87 | 75 | remaining binding at 10 µM [21]: 94%; remaining binding at 10 µM [22]: 100%; remaining binding at 10 µM [23]: 74%; remaining binding at 10 µM [24]: 95%; remaining binding at 10 µM [25]: 86%; remaining binding at 10 µM [26]: 100%; remaining binding at 10 µM [27]: 11%; remaining binding at 10 µM [28]: 93%; concentration in cortex ([29]; LC-MS/MS, one value per mouse): BLQ (2×) and 12.6 ng/mL and 9.67 ng/mL and 14.9 ng/mL and 8.92 ng/mL and 2.51 ng/mL and 17.7 ng/mL; concentration in hippocampus [29, 32]: BLQ (3×) and 8.23 ng/mL and 12.8 ng/mL and 9.33 ng/mL and 10.3 ng/mL; concentration in plasma ([29]; LC-MS/MS, one value per mouse): 12.6 ng/mL and 207 ng/mL and 203 ng/mL and 274 ng/mL and 188 ng/mL and 16.9 ng/mL and 319 ng/mL and 25.6 ng/mL; concentration in rest of brain ([29]; LC-MS/MS, one value per mouse): BLQ (2×) and 12.7 ng/mL and 10.5 ng/mL and 14.1 ng/mL and 12.9 ng/mL and 19.0 ng/mL and 2.66 ng/mL; concentration at 8 weeks ([29]; brain, SEM 1.05, read-out: concentration in the brain (Mean ±SEM)): ~11.1 ng/mL; concentration at 8 weeks ([29]; hippocampus, hippocampus at sacrifice, LC-MS/MS, one value per mouse, read-out: concentration in hippocampus): 10.5 ng/mL; remaining binding at 10 µM [30]: 45%; remaining binding at 10 µM [31]: 86%
